Patent US20230210867A1, “TREATMENT OF ADJUSTMENT DISORDERS” (VISTAGEN THERAPEUTICS, INC., priority 2020, published 2023)

Legend:
[1] = test system: symptoms of social anxiety disorder (SAD); conditions: earlier clinical studies; cited from earlier work
[2] = all clinical studies to date; cited from earlier work
[3] = test system: Adjustment Disorder with Anxiety (AjDA) symptoms in adults; assay: Phase 2A clinical trial of PH94B neuroactive nasal spray in Adjustment Disorder with Anxiety (AjDA); format: in vivo, human; conditions: adult subjects with AjDA, compared to placebo
Source text: A clinical trial is designed and conducted to evaluate the efficacy, safety and tolerability of daily administration of PH94B neuroactive nasal spray (Example 1) as a treatment of Adjustment Disorder with Anxiety (AjDA) symptoms in adults, associated with identifiable stressors related to the COVID-19 pandemic. Subject are confirmed with current diagnoses of this condition as defined in the Diagnostic and Statistical Manual of Mental Disorders, 5th Edition (DSM-5).
The PH94B study drug is delivered intranasally with the nozzle of the applicator positioned in the nasal vestibule and directed toward the midline (medial part or nasal septum). In order to administer study medication, the actuator (pusher) should be depressed.
Prior to the use of a new study medication bottle, the subject is instructed to shake the bottle five times and to prime the bottle by depressing the actuator five times. […]
1. Individual subject improvement as assessed by the Sheehan Disability Scale (SDS) at the end of week 4 of treatment with PH94B compared to placebo.
2. Individual subject improvement as assessed by the Clinical Global Impression-Improvement rating (CGI-I). […]
3. Individual subject improvement as assessed by the subject's self-assessment of improvement (PGI-C) at the end of week 4 of treatment with PH94B compared to placebo. […]

C[C@@]12C=CC[C@H]1[C@@H]1CCC3=C[C@@H](O)CC[C@]3(C)[C@H]1CC2 [PH94B, [3β]-androsta-4,16-dien-3-ol]
efficacy in treating symptoms of social anxiety disorder (SAD) [1]: significant efficacy | safety in clinical studies [2]: safe | anxiety levels as measured by the Hamilton Anxiety Scale (HAM-A) ([3]; 3.2 μg intranasal four times per day, four weeks): statistically significant reduction in anxiety levels | secondary endpoints (SDS, CGI-I, PGI-C, ADNM) ([3]; end of week 4 of treatment): statistically significant improvement
